From patent publication US12459899B2, “Isoquinolinone derivatives, method for preparing the same, and pharmaceutical composition for preventing or treating poly(ADP-ribose) polymerase-1-related diseases, comprising the same as active ingredient” (DIGMBIO. INC., priority 2019, dated 2025)

Target: PARP-1 (poly[ADP-ribose] polymerase 1) enzyme (Homo sapiens (Human), UniProt P09874)
Assay: PARP-1 (poly[ADP-ribose] polymerase 1) enzyme inhibitory ability, Trevigen assay kit
Assay type: biochemical
Conditions: for inhibition at 0.001 µM: 1 nM compound, read-out: PAR P-1 Inhibitory ability at 1 nM; for IC50: PARP-1 enzyme activity
Procedure, shortened: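 After the 1 hour PARP reaction, wells were washed with PBS containing 0.1% triton X-100 and then PBS. Strep-HRP (50 μL) was bound for 1 hour, wells washed again, and 50 μL of TACS-sapphire substrate developed 15 minutes in the dark. Reactions were stopped with 50 μL of 5% phosphoric acid and absorbance read at 450 nm on a Victor3 reader.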

Chain of PARP-1 (poly[ADP-ribose] polymerase 1) enzyme (P09874 whole entry): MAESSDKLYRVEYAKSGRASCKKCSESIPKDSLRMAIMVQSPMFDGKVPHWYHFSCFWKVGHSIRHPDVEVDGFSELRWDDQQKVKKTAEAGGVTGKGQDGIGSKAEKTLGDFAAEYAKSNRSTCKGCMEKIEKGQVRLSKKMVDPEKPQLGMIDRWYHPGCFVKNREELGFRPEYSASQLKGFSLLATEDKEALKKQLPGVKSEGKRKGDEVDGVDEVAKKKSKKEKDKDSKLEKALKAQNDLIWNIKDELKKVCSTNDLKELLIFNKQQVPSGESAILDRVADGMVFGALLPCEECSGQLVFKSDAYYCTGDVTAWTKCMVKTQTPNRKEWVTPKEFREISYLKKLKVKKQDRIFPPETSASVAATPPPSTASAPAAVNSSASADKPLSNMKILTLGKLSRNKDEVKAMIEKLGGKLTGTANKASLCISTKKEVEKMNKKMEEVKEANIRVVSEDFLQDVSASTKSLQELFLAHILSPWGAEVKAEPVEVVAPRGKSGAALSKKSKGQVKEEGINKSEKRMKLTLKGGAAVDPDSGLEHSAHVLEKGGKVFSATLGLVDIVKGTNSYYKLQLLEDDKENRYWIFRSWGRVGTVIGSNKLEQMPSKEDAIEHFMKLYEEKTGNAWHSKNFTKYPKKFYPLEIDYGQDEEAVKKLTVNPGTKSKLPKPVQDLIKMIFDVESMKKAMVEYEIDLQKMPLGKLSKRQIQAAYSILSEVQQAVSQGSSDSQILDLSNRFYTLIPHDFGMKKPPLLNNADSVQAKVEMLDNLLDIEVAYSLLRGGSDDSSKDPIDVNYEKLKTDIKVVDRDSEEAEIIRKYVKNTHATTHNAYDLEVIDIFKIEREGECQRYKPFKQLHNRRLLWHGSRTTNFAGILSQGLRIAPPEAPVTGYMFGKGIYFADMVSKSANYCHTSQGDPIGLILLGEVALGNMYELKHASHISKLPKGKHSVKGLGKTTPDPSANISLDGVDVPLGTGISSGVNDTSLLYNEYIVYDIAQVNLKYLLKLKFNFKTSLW

Compound | inhibition at 0.001 µM [%] | IC50 [nM]
Cc1ccc(F)c2c(=O)[nH]c(CCC(=O)N3CCN(c4ccc(F)c(C#N)c4)CC3)cc12 [Example 135, 2-fluoro-5-(4-(3-(8-fluoro-5-methyl-1-oxo-1,2-dihydroisoquinolin-3-yl)propanoyl)piperazin-1-yl)benzonitrile] | < 50 | 
Cc1ccc(F)c2c(=O)[nH]c(CCC(=O)N3CCN(c4ccc(F)cc4C#N)CC3)cc12 [Example 136, 5-fluoro-2-(4-(3-(8-fluoro-5-methyl-1-oxo-1,2-dihydroisoquinolin-3-yl)propanoyl)piperazin-1-yl)benzonitrile] | < 50 | 
Cc1ccc(F)c2c(=O)[nH]c(CCC(=O)N3CC=C(c4cc(C#N)ccc4F)CC3)cc12 [Example 137, 4-fluoro-3-(1-(3-(8-fluoro-5-methyl-1-oxo-1,2-dihydroisoquinolin-3-yl)propanoyl)-1,2,3,6-tetrahydropyridin-4-yl)benzonitrile] | < 50 | 
Cc1ccc(F)c2c(=O)[nH]c(CCC(=O)N3CC=C(c4ccccc4F)CC3)cc12 [Example 138, 8-fluoro-3-(3-(4-(2-fluorophenyl)-3,6-dihydropyridin-1(2H)-yl)-3-oxopropyl)-5-methylisoquinolin-1(2H)-one] | < 50 | 
Cc1ccc(F)c2c(=O)[nH]c(CCC(=O)N3CC=C(c4ccc(F)c(C#N)c4)CC3)cc12 [Example 139, 2-fluoro-5-(1-(3-(8-fluoro-5-methyl-1-oxo-1,2-dihydroisoquinolin-3-yl)propanoyl)-1,2,3,6-tetrahydropyridin-4-yl)benzonitrile] | < 50 | 
Cc1ccc(F)c2c(=O)[nH]c(CCC(=O)N3CC=C(c4ccc(C#N)cn4)CC3)cc12 [Example 140, 1′-(3-(8-fluoro-5-methyl-1-oxo-1,2-dihydroisoquinolin-3-yl)propanoyl)-1′,2′,3′,6′-tetrahydro-[2,4′-bipyridine]-5-carbonitrile] | < 50 | 
Cc1ccc(F)c2c(=O)[nH]c(CCC(=O)N3CC=C(c4ccc(C#N)c(F)c4)CC3)cc12 [Example 141, 2-fluoro-4-(1-(3-(8-fluoro-5-methyl-1-oxo-1,2-dihydroisoquinolin-3-yl)propanoyl)-1,2,3,6-tetrahydropyridin-4-yl)benzonitrile] | < 50 | 
Cc1ccc(F)c2c(=O)[nH]c(CCC(=O)N3CCN(c4cccc(F)c4)CC3)cc12 [Example 142, 8-fluoro-3-(3-(4-(3-fluorophenyl)piperazin-1-yl)-3-oxopropyl)-5-methylisoquinolin-1(2H)-one] | < 50 | 
Cc1ccc(F)c2c(=O)[nH]c(CCC(=O)N3CC=C(c4ccnc(F)c4)CC3)cc12 [Example 144, 8-fluoro-3-(3-(2′-fluoro-3,6-dihydro-[4,4′-bipyridine]-1(2H)-yl)-3-oxopropyl)-5-methylisoquinolin-1(2H)-one] | < 50 | 
Cc1ccc(F)c2c(=O)[nH]c(CCC(=O)N3CC=C(c4ccc(C#N)nc4)CC3)cc12 [Example 145, 1′-(3-(8-fluoro-5-methyl-1-oxo-1,2-dihydroisoquinolin-3-yl)propanoyl)-1′,2′,3′,6′-tetrahydro-[3,4′-bipyridine]-6-carbonitrile] | < 50 | 
COC(=O)c1ccc(N2CCN(C(=O)CCc3cc4c(C)ccc(F)c4c(=O)[nH]3)CC2)cc1 [Example 146, methyl 4-(4-(3-(8-fluoro-5-methyl-1-oxo-1,2-dihydroisoquinolin-3-yl)propanoyl)piperazin-1-yl)benzoate] | < 50 | 
Cc1ccc(F)c2c(=O)[nH]c(CCC(=O)N3CCN(c4ccc(C(=O)O)cc4)CC3)cc12 [Example 147, 4-(4-(3-(8-fluoro-5-methyl-1-oxo-1,2-dihydroisoquinolin-3-yl)propanoyl)piperazin-1-yl)benzoic acid] | < 50 | 
Cc1ccc(F)c2c(=O)[nH]c(CCC(=O)N3C4CCC3CN(c3ccc(C#N)cc3)C4)cc12 [Example 148, 4-(8-(3-(8-fluoro-5-methyl-1-oxo-1,2-dihydroisoquinolin-3-yl)propanoyl)-3,8-diazabicyclo[3.2.1]octan-3-yl)benzonitrile] | < 50 | 
Cc1cc(F)cc2c(=O)[nH]c(CCC(=O)N3CC=C(c4ccc(F)cc4)CC3)cc12 [Example 150, 7-fluoro-3-(3-(4-(4-fluorophenyl)-3,6-dihydropyridin-1(2H)-yl)-3-oxopropyl)-5-methylisoquinolin-1(2H)-one] | < 50 | 
Cc1cc(F)cc2c(=O)[nH]c(CCC(=O)N3CCN(c4ccc(Cl)cc4)CC3)cc12 [Example 155, 3-(3-(4-(4-chlorophenyl)piperazin-1-yl)-3-oxopropyl)-7-fluoro-5-methylisoquinolin-1(2H)-one] | < 50 | 

The remaining lines, values ahead:

inhibition at 0.001 µM [%] | IC50 [nM] | Compound
< 50 |  | Cc1cc(F)cc2c(=O)[nH]c(CCC(=O)N3CCN(c4ccc(C#N)cc4)CC3)cc12 [Example 149, 4-(4-(3-(7-fluoro-5-methyl-1-oxo-1,2-dihydroisoquinolin-3-yl)propanoyl)piperazin-1-yl)benzonitrile]
< 50 | 4.05 | Cc1cc(F)cc2c(=O)[nH]c(CCC(=O)N3CCN(c4ccc(C#N)nc4)CC3)cc12 [Example 151, 5-(4-(3-(7-fluoro-5-methyl-1-oxo-1,2-dihydroisoquinolin-3-yl)propanoyl)piperazin-1-yl)picolinonitrile]
< 50 | 0.85 | Cc1cc(F)cc2c(=O)[nH]c(CCC(=O)N3CCN(c4ccc(C#N)cn4)CC3)cc12 [Example 152, 6-(4-(3-(7-fluoro-5-methyl-1-oxo-1,2-dihydroisoquinolin-3-yl)propanoyl)piperazin-1-yl)nicotinonitrile]
< 50 |  | Cc1cc(F)cc2c(=O)[nH]c(CCC(=O)N3CCN(c4ccc(C#N)c(F)c4)CC3)cc12 [Example 153, 2-fluoro-4-(4-(3-(7-fluoro-5-methyl-1-oxo-1,2-dihydroisoquinolin-3-yl)propanoyl)piperazin-1-yl)benzonitrile]
< 50 |  | Cc1cc(F)cc2c(=O)[nH]c(CCC(=O)N3CCN(c4ccc(C#N)cc4F)CC3)cc12 [Example 154, 3-fluoro-4-(4-(3-(7-fluoro-5-methyl-1-oxo-1,2-dihydroisoquinolin-3-yl)propanoyl)piperazin-1-yl)benzonitrile]
< 50 |  | Cc1cc(F)cc2c(=O)[nH]c(CCC(=O)N3CCN(c4cc(C#N)ccc4F)CC3)cc12 [Example 156, 4-fluoro-3-(4-(3-(7-fluoro-5-methyl-1-oxo-1,2-dihydroisoquinolin-3-yl)propanoyl)piperazin-1-yl)benzonitrile]
< 50 |  | Cc1cc(F)cc2c(=O)[nH]c(CCC(=O)N3CCN(c4cc(F)ccc4C#N)CC3)cc12 [Example 157, 4-fluoro-2-(4-(3-(7-fluoro-5-methyl-1-oxo-1,2-dihydroisoquinolin-3-yl)propanoyl)piperazin-1-yl)benzonitrile]
< 50 |  | Cc1cc(F)cc2c(=O)[nH]c(CCC(=O)N3CCN(c4ccc(F)c(C#N)c4)CC3)cc12 [Example 158, 2-fluoro-5-(4-(3-(7-fluoro-5-methyl-1-oxo-1,2-dihydroisoquinolin-3-yl)propanoyl)piperazin-1-yl)benzonitrile]
< 50 |  | Cc1cc(F)cc2c(=O)[nH]c(CCC(=O)N3CCN(c4ccc(F)cc4C#N)CC3)cc12 [Example 159, 5-fluoro-2-(4-(3-(7-fluoro-5-methyl-1-oxo-1,2-dihydroisoquinolin-3-yl)propanoyl)piperazin-1-yl)benzonitrile]
